Reference: patent publication US20090221559A1 (priority 2005, published 2009)
Where two headings read alike, the source gives them in different places.

What was measured:
[1] = molecular target: T1, HCV NS5B polymerase (His-tagged, C-terminal 21 amino acid deleted NS5B, HC-J4) (Hepatitis C virus genotype 1b, UniProt O92972); assay: NS5b polymerase assay (biochemical RdRp assay, 3H-GTP incorporation, SPA beads); parameters: species or system HCV genotype 1b
T1 construct: The cDNA encoding NS5B amino acid 1-570 (HC-J4, genotype 1b); His tag (His6, from pET-21b) (C); made in house; host or cells: E. coli BL21 (DE3)
T1 sequence (O92972 2417-3000, looked up, stated change not applied): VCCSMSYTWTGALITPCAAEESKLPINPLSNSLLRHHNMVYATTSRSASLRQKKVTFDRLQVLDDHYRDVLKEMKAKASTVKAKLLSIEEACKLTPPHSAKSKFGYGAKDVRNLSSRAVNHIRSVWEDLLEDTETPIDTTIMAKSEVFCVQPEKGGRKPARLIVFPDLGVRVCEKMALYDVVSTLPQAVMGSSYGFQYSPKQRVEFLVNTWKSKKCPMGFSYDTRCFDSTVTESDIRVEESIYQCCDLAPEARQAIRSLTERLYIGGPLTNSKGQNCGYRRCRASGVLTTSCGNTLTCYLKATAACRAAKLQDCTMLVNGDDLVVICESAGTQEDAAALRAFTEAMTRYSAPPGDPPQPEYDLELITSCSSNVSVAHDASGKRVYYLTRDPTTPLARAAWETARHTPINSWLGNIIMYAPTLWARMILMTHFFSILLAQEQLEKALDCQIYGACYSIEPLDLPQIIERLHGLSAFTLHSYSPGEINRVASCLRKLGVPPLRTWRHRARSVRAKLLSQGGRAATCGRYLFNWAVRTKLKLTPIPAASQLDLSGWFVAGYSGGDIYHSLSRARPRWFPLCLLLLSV
In short: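 His-tagged C-terminal-21-aa-deleted NS5B (genotype 1b, HC-J4) at 200 nM was preincubated 15 min at RT with compound on 5′-biotinylated oligo(rG13)/poly(rC) template/primer before NTPs. Reaction with 600 nM GTP plus 0.1 μCi 3H-GTP and 5 mM MgCl2 in Tris pH 7.5 ran 2 h at 25 °C. Stopped with EDTA/SPA beads for incorporation counting.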

[2] = system: HCV replicon RNA replication in Huh-7 luc/neo (Huh-Luc) cells; assay: HCV replicon assay (stable replicon cell reporter assay, luciferase read-out); format: cell-based, HCV type 1b
In short: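 Huh-7 cells stably carry a bicistronic HCV 1b NS3-NS5B subgenomic replicon with firefly luciferase and neo markers. Cells were plated with compound across a concentration range and incubated three days. Replication was measured as luciferase activity to give dose-response curves.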

[3] = NS5B Polymerase Assay IC50 (μM)
[4] = Hepatitis C virus, Huh-7, 72 h, read-out: Replicon Assay EC50 (μM), Huh-Luc cells, incubation of three days, luciferase activity
[5] = NS5B Polymerase Assay IC50, 200 nM enzyme, 3H-GTP incorporation, 2 h at 25° C.
[6] = Hepatitis C virus, Huh-7, 72 h, read-out: Replicon Assay EC50, Huh-Luc cells, three days incubation, luciferase activity
[7] = 200 nM enzyme, 3H-GTP incorporation, 2 h at 25° C., read-out: NS5B Polymerase Assay IC50
[8] = Huh-Luc cells, three days incubation, luciferase activity, read-out: Replicon Assay EC50

| SMILES | IC50 [1, 3] | EC50 [2, 4] | IC50 [1, 5] | EC50 [2, 6] | other results |
| --- | --- | --- | --- | --- | --- |
| COc1ccc([C@@H]2CC(=O)C3=C(C2)Nc2ccccc2N[C@H]3c2cc3c(cc2[N+](=O)[O-])OCO3)cc1OC [compound 487] | > 42.7 µM | 3.15 µM | – | – | – |
| CC(C)CC(=O)N1c2ccccc2NC2=C(C(=O)CC(C)(C)C2)C1c1c(F)cccc1Cl (stereo not drawn) [compound 43] | – | – | > 42.7 µM | 9.17 µM | – |
| O=C1CC(c2ccc(Cl)cc2)CC2=C1C(c1cccc(Cl)c1)Nc1ccccc1N2 (stereo not drawn) [compound 350] | 25.1 µM | 5.21 µM | – | – | – |
| CC(=O)N1c2ccccc2NC2=C(C(=O)CC(C)(C)C2)C1c1ccc(OCc2ccccc2Cl)cc1 (stereo not drawn) [compound 148, 10-acetyl-11-[4-(2-chlorobenzyloxy)phenyl]-3,3-dimethyl-2,3,4,5,10,11-hexahydro-1H-dibenzo[b,e][1,4]diazepin-1-one] | – | – | 83.7 µM | 3.23 µM | – |
| CC1(C)CC(=O)C2=C(C1)Nc1ccccc1NC2c1cccc(Cl)c1Cl (stereo not drawn) [compound 427] | > 42.7 µM | 20.7 µM | – | – | – |
| CCC(=O)N1c2ccccc2NC2=C(C(=O)CC(C)(C)C2)C1c1ccccc1OC(C)CC (stereo not drawn) [compound 61] | – | – | > 42.7 µM | 9.45 µM | – |
| CC1(C)CC(=O)C2=C(C1)Nc1ccccc1NC2c1ccc(Cl)cc1Cl (stereo not drawn) [compound 423, 11-(2,4-dichlorophenyl)-2,3,4,5,10,11-hexahydro-3,3-dimethyl-1H-dibenzo[b,e][1,4]diazepin-1-one] | 37.9 µM | 26.4 µM | – | – | – |
| CCC(=O)N1c2ccccc2NC2=C(C(=O)CC(C)(C)C2)C1c1ccc(Cl)cc1 (stereo not drawn) [compound 54] | – | – | > 42.7 µM | 22.3 µM | – |
| CC1(C)CC(=O)C2=C(C1)Nc1ccccc1N(C(=O)Cc1ccccc1)C2c1cccs1 (stereo not drawn) [compound 240] | – | – | > 42.7 µM | 7.73 µM | – |
| O=C1CC(c2ccc(Cl)cc2)CC2=C1C(c1cccc(Cl)c1)N(C(=O)c1ccccc1)c1ccccc1N2 (mixture of isomers) [compound 203] | – | – | – | – | IC50 [1, 7]: > 33.3 µM; EC50 [2, 8]: 9.94 µM |
| CC1(C)CC(=O)C2=C(C1)Nc1ccccc1N(C(=O)Cc1ccccc1)C2c1ccc2c(c1)OCO2 (stereo not drawn) [compound 275] | – | – | > 42.7 µM | 10.1 µM | – |
| CC(C)C(=O)N1c2ccccc2NC2=C(C(=O)CC(C)(C)C2)C1c1ccc(OCc2ccccc2)cc1 (stereo not drawn) [compound 99] | – | – | > 42.7 µM | 3.69 µM | – |
| COc1cc(C2Nc3ccccc3NC3=C2C(=O)CC(c2ccccc2)C3)cc(OC)c1OC (stereo not drawn) [compound 339] | > 42.7 µM | 9.15 µM | – | – | – |
| CC1(C)CC(=O)C2=C(C1)Nc1ccccc1NC2c1ccc(F)cc1F (stereo not drawn) [compound 441, 11-(2,4-difluorophenyl)-3,3-dimethyl-2,3,4,5,10,11-hexahydro-1H-dibenzo[b,e][1,4]diazepin-1-one] | > 133 µM | > 100 µM | – | – | – |
| CSc1ccc(C2Nc3ccccc3NC3=C2C(=O)CC(c2ccccc2)C3)cc1 (stereo not drawn) [compound 362] | 30.6 µM | 19.3 µM | – | – | – |
| CCC(=O)N1c2ccccc2NC2=C(C(=O)CC(C)(C)C2)C1c1cccc(Cl)c1Cl (stereo not drawn) [compound 40] | – | – | > 42.7 µM | > 24.7 µM | – |
| COc1ccc(C2C3=C(CC(C)(C)CC3=O)Nc3ccccc3N2C(=O)C(F)(F)F)c(OC)c1 (stereo not drawn) [compound 58] | – | – | > 42.7 µM | 8.78 µM | – |
| CN(C)c1ccc(C2C3=C(CC(C)(C)CC3=O)Nc3ccccc3N2C(=O)Nc2ccc(Cl)c(Cl)c2)cc1 (stereo not drawn) [compound 76] | – | – | > 33.3 µM | 6.27 µM | – |
| COc1c(Cl)cc(Cl)cc1C1C2=C(CC(C)(C)CC2=O)Nc2ccccc2N1C(C)=O (stereo not drawn) [compound 73] | – | – | > 42.7 µM | 19.9 µM | – |
| CCN(CC)c1ccc(C2CC(=O)C3=C(C2)Nc2ccccc2N(C(=O)c2ccccc2)C3c2ccco2)cc1 (stereo not drawn) [compound 295] | – | – | > 42.7 µM | 21.6 µM | – |
| COc1cc2c(cc1OC)N(C(C)=O)C(c1ccc(Cl)cc1Cl)C1=C(CC(C)(C)CC1=O)N2 (stereo not drawn) [compound 309, 10-acetyl-7,8-dimethoxy-11-(2,4-dichlorophenyl)-3,3-dimethyl-2,3,4,5,10,11-hexahydro-1H-dibenzo[b,e][1,4]diazepin-1-one] | – | – | > 133 µM | 39.6 µM | – |

| SMILES | IC50 [1, 3] | EC50 [2, 4] | IC50 [1, 5] | EC50 [2, 6] | other results |
| --- | --- | --- | --- | --- | --- |
| CC(=O)N1c2ccccc2NC2=C(C(=O)CC(c3ccccc3OCc3ccccc3)C2)C1c1cccc(OCc2ccccc2)c1 (single isomer, unassigned) [compound 190] | – | – | – | – | IC50 ([1]; read-out: NS5B Polymerase Assay IC50, 200 nM enzyme, 3H-GTP incorporation, 2 h at 25° C.): > 42.7 µM; EC50 ([2]; read-out: Replicon Assay EC50, Huh-Luc cells, three days incubation, luciferase activity): 1.09 µM |
| COc1ccc(C2C3=C(CC(c4cccc([N+](=O)[O-])c4)CC3=O)Nc3ccccc3N2C(=O)c2ccccc2)cc1 (stereo not drawn) [compound 221] | – | – | – | – | IC50 [1, 7]: > 42.7 µM; EC50 [2, 8]: 23.2 µM |
| COc1cc(C2C3=C(CC(C)(C)CC3=O)Nc3ccccc3N2C(C)=O)ccc1OCc1ccccc1 (stereo not drawn) [compound 124] | – | – | – | – | IC50 [1, 7]: 8.56 µM; EC50 [2, 8]: 28.9 µM |
| CCCOc1ccccc1C1C2=C(CC(C)(C)CC2=O)Nc2ccccc2N1C(C)=O (stereo not drawn) [compound 130] | – | – | > 42.7 µM | > 32 µM | – |
| CC(=O)N1c2ccccc2NC2=C(C(=O)CC(C)(C)C2)C1c1cc(Cl)ccc1Cl (stereo not drawn) [compound 138, 10-acetyl-11-[2,5-dichlorophenyl]-3,3-dimethyl-2,3,4,5,10,11-hexahydro-1H-dibenzo[b,e][1,4]diazepin-1-one] | – | – | > 133 µM | 26.7 µM | – |
| COc1ccc(C2CC(=O)C3=C(C2)Nc2ccccc2NC3c2cc(OC)c(OC)cc2OC)cc1OC (stereo not drawn) [compound 403] | > 42.7 µM | 7.12 µM | – | – | – |
| Cc1cc2c(cc1C)NC(c1ccc(Cl)cc1Cl)C1=C(CC(C)(C)CC1=O)N2 (stereo not drawn) [compound 464, 11-(2,4-Dichlorophenyl)-2,3,4,5,10,11-hexahydro-3,3,7,8-tetramethyl-1H-dibenzo[b,e][1,4]diazepin-1-one] | > 133 µM | 82.7 µM | – | – | – |
| O=C1CC(c2ccc(Cl)cc2)CC2=C1C(c1cccc(Cl)c1)N(C(=O)C(F)(F)F)c1ccccc1N2 (mixture of isomers) [compound 208] | – | – | – | – | IC50 [1, 7]: > 33.3 µM; EC50 [2, 8]: 11.1 µM |
| CC(=O)N1c2ccccc2NC2=C(C(=O)CC(C)(C)C2)C1c1cccc(Oc2ccccc2)c1 (stereo not drawn) [compound 135] | – | – | 54.7 µM | 2.47 µM | – |
| CCCCCC(=O)N1c2ccccc2NC2=C(C(=O)CC(c3ccco3)C2)C1c1ccc(Cl)cc1 (stereo not drawn) [compound 289] | – | – | > 33.3 µM | 15.4 µM | – |
| CC(=O)N1c2ccccc2NC2=C(C(=O)CC(C)(C)C2)C1c1ccc(-c2cccc([N+](=O)[O-])c2)o1 (stereo not drawn) [compound 250] | – | – | > 42.6 µM | 7.95 µM | – |
| COc1ccc(C2CC(=O)C3=C(C2)Nc2ccccc2NC3c2cc(OC)ccc2OC)cc1 (stereo not drawn) [compound 336] | > 42.7 µM | 13.8 µM | – | – | – |
| O=C1C[C@@H](c2ccc(Cl)cc2)CC2=C1[C@H](c1cccnc1)Nc1ccccc1N2 [compound 483] | > 42.7 µM | 15.5 µM | – | – | – |
| COc1ccc(C2CC(=O)C3=C(C2)Nc2ccccc2NC3c2ccccc2C)cc1 (stereo not drawn) [compound 381] | > 42.7 µM | 4.77 µM | – | – | – |
| CCC(=O)N1c2ccccc2NC2=C(C(=O)CC(c3ccc(OC)cc3)C2)C1c1ccc(OC)cc1 (stereo not drawn) [compound 223] | – | – | > 42.7 µM | 25 µM | – |
| O=C1CC(c2ccccc2)CC2=C1C(c1ccccc1OCc1ccccc1)Nc1ccccc1N2 (stereo not drawn) [compound 365] | 27.3 µM | 5.24 µM | – | – | – |
| CC1(C)CC(=O)C2=C(C1)Nc1ccccc1N(C(=O)c1ccccc1)C2/C=C/c1ccccc1 (stereo not drawn) [compound 264] | – | – | – | – | IC50 [1, 7]: > 42.7 µM; EC50 [2, 8]: 8.87 µM |
| CCOc1ccccc1C1CC(=O)C2=C(C1)Nc1ccccc1N(C(=O)C(F)(F)F)C2c1ccc(OC)cc1 (stereo not drawn) [compound 173] | – | – | – | – | IC50 [1, 7]: > 42.7 µM; EC50 [2, 8]: 0.208 µM |
| CCOc1cccc(C2Nc3ccccc3NC3=C2C(=O)CC(c2ccccc2)C3)c1 (stereo not drawn) [compound 410] | > 33.3 µM | 22.6 µM | – | – | – |
| CC(=O)N1c2ccccc2NC2=C(C(=O)CC(C)(C)C2)C1c1ccc(Br)s1 (stereo not drawn) [compound 282] | – | – | > 42.7 µM | 17 µM | – |
| COc1ccc(C2CC(=O)C3=C(C2)Nc2ccccc2NC3c2cc(Br)c(O)c(OC)c2)cc1OC (stereo not drawn) [compound 397] | > 42.7 µM | 6.13 µM | – | – | – |
